Data on 13 compounds can be found in ChEMBL document CHEMBL1130583, “Benzylamine-based selective and orally bioavailable inhibitors of thrombin” (Bioorg Med Chem Lett, 1998).

For one data set, the system named is Rattus norvegicus. In words: In vivo antithrombotic activity was tested in rat thromboplastin-induced model of venous thrombosis at an intravenous bolus of 5 mg/Kg. In kind it is functional.
For the next data set, the target named is Prothrombin (Homo sapiens, UniProt P00734). Put plainly: Binding affinity towards human thrombin.
The next data set deals with T1, Serine protease 1 (Bos taurus, UniProt P00760).
T1 sequence (P00760 whole entry): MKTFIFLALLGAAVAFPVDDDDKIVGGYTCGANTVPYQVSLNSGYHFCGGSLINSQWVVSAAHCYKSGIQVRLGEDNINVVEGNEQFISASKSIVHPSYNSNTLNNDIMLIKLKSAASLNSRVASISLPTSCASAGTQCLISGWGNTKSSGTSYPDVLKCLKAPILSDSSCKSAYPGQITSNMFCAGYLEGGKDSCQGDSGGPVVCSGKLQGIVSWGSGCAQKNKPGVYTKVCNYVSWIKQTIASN
Put plainly: Binding affinity towards bovine trypsin was evaluated in vitro.

Data set [1] is described as follows: Time taken by the compound to achieve maximum concentration in rat plasma at 30 mg/Kg upon oral administration. It counts as ADME, organism-based.
A short description of data set [2]: Maximum concentration in rat plasma at 30 mg/Kg upon oral administration. It counts as ADME, organism-based. On the set-up: dose 30 mg/Kg, route oral.
A short description of data set [3]: Apparent permeability coefficient (Papp) was determined in human Caco-2 cell monolayer (n = 3). In kind it is ADME, cell-based. For orientation: Caco-2 monolayers are a common model of the intestinal barrier.

`CN(C(=O)[C@H](Cc1ccc(CN)cc1)NS(=O)(=O)c1ccc2ccccc2c1)C1CCCC1` displayed an inhibition in vivo at 5 mg/kg in the data set with Rattus norvegicus of 17.6%. In addition, the Ki on Prothrombin was 18.3 nM; on Serine protease 1, 13600 nM.

As for `NCc1ccc(C[C@H](NS(=O)(=O)c2ccc3ccccc3c2)C(=O)N2CCCCC2)cc1`, the affinity on Prothrombin, expressed as Ki, was 3.1 nM. This lies in the single-digit nanomolar range.

In the data set with Rattus norvegicus, `CN(C(=O)[C@H](Cc1ccc(CN)cc1)NS(=O)(=O)c1ccc2cc3ccccc3cc2c1)C1CCCC1` registered an inhibition in vivo at 5 mg/kg of 45.4%. Moreover, the Ki on Prothrombin came out at 5.7 nM; on Serine protease 1 it was 3300 nM.

`CN(C(=O)[C@H](Cc1ccc(CN)cc1)NS(=O)(=O)c1ccc(C2CCCCC2)cc1)C1CCCC1`: 5 mg/kg produced 23.8% inhibition in vivo in the data set with Rattus norvegicus. The inhibitory constant (Ki) came to 20.1 nM on Prothrombin and 4800 nM on Serine protease 1.

Take `CN(C(=O)[C@H](Cc1ccc(CN)cc1)NS(=O)(=O)c1ccc2c(c1)CCCCC2)C1CCCC1`: the Tmax in data set [1] was 1.33 h. In addition, in data set [2], the highest level (Cmax) was 3.5 µM. The compound also showed an inhibition in vivo at 5 mg/kg with Rattus norvegicus of 39.4%. Further, the values for the Ki at Prothrombin and at Serine protease 1 were 3.3 nM and 6300 nM, respectively.

`CN(C(=O)[C@H](Cc1ccc(CN)cc1)NS(=O)(=O)c1ccc(-c2ccccn2)s1)C1CCCC1`: the Ki at Prothrombin turned out to be 107 nM.

The compound `CN(C(=O)[C@H](Cc1ccc(CN)cc1)NS(=O)(=O)c1ccc2c(c1)CCCC2)C1CCCC1` had an inhibition in vivo at 5 mg/kg with Rattus norvegicus of 16.4%. Besides, the inhibitory constant (Ki) worked out at 10.1 nM on Prothrombin and 9800 nM at Serine protease 1.

Turning to `CN(C)c1cccc2c(S(=O)(=O)N[C@@H](Cc3ccc(CN)cc3)C(=O)N(C)C3CCCC3)cccc12`, the Tmax in data set [1] was 1.6 h. Also, in data set [2], the highest level (Cmax) was 3.3 µM. In the data set with Rattus norvegicus, this compound showed an inhibition in vivo at 5 mg/kg of 35.5%. Also, the Ki came out at 10.9 nM at Prothrombin and 17100 nM at Serine protease 1.

Take `COc1ccc2cc(S(=O)(=O)N[C@@H](Cc3ccc(CN)cc3)C(=O)N(C)C3CCCC3)ccc2c1`: the apparent permeability (Papp) in data set [3] amounted to 10.7 ×10⁻⁶ cm/s. Besides, in data set [1], the Tmax is 2.33 h. In data set [2], the Cmax turned out to be 2.8 µM. Further, in the data set on Rattus norvegicus, the inhibition in vivo at 5 mg/kg worked out at 44.1%. For the same compound, the Ki was found to be 6.6 nM on Prothrombin and 14200 nM on Serine protease 1.

Consider `CN(C(=O)[C@H](Cc1ccc(C(=N)N)cc1)NS(=O)(=O)c1ccc2ccccc2c1)C1CCCC1`, for which the Papp in data set [3] was found to be 0.2 ×10⁻⁶ cm/s.

With `CN(C(=O)[C@H](Cc1ccc(C(=N)NN)cc1)NS(=O)(=O)c1ccc2ccccc2c1)C1CCCC1`, the Papp in data set [3] is 1.7 ×10⁻⁶ cm/s.

Consider `CCCc1ccc(S(=O)(=O)N[C@@H](Cc2ccc(CN)cc2)C(=O)N(C)C2CCCC2)cc1`, for which the Ki is 9.6 nM at Prothrombin and 9040 nM at Serine protease 1.

In turn, `CN(C(=O)[C@H](Cc1ccc(CN)cc1)NS(=O)(=O)c1ccc(-c2ccccc2)cc1)C1CCCC1` displayed a Ki on Prothrombin of 60.5 nM.

By inhibition in vivo is commonly meant how much of the control response was suppressed. Read a low inhibition in vivo as little suppression. One may read the Ki as the equilibrium dissociation constant of an inhibitor or competing ligand from its target. A lower Ki goes with tighter binding. Broadly, the Tmax is the time at which the peak concentration occurs. By Cmax is commonly meant the highest concentration seen after dosing. A word on the Papp: it is a coefficient for how fast a substance crosses the barrier.
